These results are taken from patent US20240269139A1, “COMPOUNDS FOR TARGETED PROTEIN DEGRADATION OF KINASES” (DANA-FARBER CANCER INSTITUTE, INC., priority 2020, published 2024).

What all share (type): cell-based
For assay [1], the target named is T1, protein kinases (human kinome) (Homo sapiens, UniProt O60285).
T1 sequence (O60285 1-661): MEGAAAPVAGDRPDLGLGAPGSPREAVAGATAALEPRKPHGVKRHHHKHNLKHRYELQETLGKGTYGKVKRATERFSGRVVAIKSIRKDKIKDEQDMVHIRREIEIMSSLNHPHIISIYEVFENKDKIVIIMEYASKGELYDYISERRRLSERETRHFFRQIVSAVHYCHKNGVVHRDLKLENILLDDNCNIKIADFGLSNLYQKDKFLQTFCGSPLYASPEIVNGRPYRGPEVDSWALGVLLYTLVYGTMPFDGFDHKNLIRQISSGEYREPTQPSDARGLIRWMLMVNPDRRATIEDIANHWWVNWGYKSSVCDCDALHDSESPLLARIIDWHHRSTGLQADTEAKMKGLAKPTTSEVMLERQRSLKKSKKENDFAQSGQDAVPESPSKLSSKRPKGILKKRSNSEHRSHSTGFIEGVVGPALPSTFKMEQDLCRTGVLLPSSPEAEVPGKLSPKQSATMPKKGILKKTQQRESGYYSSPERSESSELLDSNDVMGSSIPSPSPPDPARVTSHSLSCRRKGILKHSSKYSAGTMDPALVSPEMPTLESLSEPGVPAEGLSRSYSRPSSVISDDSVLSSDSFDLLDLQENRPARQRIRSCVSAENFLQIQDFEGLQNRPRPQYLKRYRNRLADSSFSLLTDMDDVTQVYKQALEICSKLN
The settings on record: NUAK1 (O60285).

The target in assay [2] is protein kinases (human kinome) (Homo sapiens, UniProt P06493). The settings on record: CDK1 P06493; experiment wp146.
Chain of protein kinases (human kinome) (Homo sapiens, UniProt P06493) (P06493 whole entry): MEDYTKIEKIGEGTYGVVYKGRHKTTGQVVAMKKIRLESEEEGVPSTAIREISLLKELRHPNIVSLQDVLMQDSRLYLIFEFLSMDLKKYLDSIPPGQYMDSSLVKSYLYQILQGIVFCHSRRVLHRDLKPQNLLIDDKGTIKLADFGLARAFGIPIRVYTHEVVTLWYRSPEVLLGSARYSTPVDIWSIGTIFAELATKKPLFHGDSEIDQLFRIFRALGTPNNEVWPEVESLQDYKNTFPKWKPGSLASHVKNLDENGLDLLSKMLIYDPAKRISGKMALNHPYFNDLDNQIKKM
The target of assay [3] is protein kinases (human kinome) (Homo sapiens, UniProt Q9Y2K2). The settings on record: for logFC: SIK3 (Q9Y2K2).
Chain of protein kinases (human kinome) (Homo sapiens, UniProt Q9Y2K2) (Q9Y2K2 whole entry): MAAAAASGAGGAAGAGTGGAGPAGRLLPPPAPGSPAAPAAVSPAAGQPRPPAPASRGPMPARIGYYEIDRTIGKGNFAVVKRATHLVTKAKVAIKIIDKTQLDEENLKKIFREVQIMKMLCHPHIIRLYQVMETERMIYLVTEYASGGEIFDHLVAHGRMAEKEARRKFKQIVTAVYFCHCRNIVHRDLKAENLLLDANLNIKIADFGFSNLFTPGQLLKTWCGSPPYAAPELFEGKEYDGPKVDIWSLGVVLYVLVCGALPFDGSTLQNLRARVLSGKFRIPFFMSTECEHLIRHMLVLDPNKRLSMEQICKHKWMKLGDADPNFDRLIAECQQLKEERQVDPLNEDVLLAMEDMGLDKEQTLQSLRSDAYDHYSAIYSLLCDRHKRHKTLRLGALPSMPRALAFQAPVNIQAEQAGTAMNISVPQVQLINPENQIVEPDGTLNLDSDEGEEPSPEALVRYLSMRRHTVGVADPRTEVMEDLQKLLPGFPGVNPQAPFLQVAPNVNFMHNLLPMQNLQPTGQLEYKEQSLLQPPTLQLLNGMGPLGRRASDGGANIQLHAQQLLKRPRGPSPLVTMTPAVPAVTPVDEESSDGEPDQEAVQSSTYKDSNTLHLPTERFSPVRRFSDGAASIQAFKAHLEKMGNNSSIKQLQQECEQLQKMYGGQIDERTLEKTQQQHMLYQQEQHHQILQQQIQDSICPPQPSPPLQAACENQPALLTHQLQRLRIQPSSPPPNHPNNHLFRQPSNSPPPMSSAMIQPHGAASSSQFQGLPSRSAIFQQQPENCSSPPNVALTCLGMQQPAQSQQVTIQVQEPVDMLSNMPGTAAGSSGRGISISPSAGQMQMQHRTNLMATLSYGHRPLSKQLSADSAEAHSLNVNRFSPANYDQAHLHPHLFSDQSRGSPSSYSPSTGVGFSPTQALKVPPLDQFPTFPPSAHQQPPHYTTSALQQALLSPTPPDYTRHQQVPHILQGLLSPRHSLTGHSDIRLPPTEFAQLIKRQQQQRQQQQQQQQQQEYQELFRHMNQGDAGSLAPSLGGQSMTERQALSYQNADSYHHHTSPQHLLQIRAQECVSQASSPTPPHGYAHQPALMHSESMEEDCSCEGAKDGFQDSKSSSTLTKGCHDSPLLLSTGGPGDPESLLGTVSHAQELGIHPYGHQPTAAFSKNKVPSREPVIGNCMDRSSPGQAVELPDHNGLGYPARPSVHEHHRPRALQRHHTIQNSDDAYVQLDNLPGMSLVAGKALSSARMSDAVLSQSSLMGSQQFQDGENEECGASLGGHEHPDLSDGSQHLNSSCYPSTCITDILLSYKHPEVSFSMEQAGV
Assay [4] concerns the target protein kinases (human kinome) (Homo sapiens, UniProt P53350). The settings on record: PLK1 P53350; experiment wp076.
The target in assay [5] is protein kinases (human kinome) (Homo sapiens, UniProt P49137). The settings on record: experiment wp168.
Chain of protein kinases (human kinome) (Homo sapiens, UniProt P49137) (P49137 whole entry): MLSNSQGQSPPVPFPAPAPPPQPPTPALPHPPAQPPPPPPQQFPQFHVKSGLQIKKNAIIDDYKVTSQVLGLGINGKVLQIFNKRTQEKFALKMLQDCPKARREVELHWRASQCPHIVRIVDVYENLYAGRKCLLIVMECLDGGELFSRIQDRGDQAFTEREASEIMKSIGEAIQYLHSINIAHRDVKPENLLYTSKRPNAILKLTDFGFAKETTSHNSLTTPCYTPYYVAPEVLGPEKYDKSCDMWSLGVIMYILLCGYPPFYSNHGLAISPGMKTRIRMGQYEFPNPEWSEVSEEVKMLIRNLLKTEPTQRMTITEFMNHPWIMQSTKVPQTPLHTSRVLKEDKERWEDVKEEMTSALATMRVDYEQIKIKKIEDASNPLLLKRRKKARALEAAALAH
The target of assay [6] is protein kinases (human kinome) (Homo sapiens, UniProt Q13164). The settings on record: MAPK7 (Q13164-1), experiment wp168.
Chain of protein kinases (human kinome) (Homo sapiens, UniProt Q13164) (Q13164 whole entry): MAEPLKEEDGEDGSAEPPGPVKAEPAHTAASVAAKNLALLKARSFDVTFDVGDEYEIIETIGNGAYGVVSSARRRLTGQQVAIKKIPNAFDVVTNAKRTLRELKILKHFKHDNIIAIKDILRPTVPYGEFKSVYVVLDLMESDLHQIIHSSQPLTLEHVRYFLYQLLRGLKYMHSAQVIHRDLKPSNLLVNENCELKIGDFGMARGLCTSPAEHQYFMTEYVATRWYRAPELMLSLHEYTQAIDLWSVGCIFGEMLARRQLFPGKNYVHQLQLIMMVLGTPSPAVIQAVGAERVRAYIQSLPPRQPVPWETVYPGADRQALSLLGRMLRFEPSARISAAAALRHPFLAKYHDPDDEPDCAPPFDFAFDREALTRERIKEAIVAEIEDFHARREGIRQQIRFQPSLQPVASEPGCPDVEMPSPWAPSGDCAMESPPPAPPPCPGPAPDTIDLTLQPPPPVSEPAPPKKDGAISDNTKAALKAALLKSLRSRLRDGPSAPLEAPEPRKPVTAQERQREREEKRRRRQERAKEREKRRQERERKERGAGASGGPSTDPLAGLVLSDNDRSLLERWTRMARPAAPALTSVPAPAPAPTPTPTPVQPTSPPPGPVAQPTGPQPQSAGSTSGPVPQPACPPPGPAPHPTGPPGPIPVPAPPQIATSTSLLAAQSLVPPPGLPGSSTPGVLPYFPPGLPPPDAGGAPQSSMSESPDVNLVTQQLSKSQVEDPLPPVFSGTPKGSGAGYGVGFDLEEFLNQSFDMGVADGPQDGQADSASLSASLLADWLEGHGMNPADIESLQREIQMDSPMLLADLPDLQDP
Assay [7] has as its target T2, protein kinases (human kinome) (Homo sapiens, UniProt Q9UBE8).
T2 sequence (Q9UBE8 1-527): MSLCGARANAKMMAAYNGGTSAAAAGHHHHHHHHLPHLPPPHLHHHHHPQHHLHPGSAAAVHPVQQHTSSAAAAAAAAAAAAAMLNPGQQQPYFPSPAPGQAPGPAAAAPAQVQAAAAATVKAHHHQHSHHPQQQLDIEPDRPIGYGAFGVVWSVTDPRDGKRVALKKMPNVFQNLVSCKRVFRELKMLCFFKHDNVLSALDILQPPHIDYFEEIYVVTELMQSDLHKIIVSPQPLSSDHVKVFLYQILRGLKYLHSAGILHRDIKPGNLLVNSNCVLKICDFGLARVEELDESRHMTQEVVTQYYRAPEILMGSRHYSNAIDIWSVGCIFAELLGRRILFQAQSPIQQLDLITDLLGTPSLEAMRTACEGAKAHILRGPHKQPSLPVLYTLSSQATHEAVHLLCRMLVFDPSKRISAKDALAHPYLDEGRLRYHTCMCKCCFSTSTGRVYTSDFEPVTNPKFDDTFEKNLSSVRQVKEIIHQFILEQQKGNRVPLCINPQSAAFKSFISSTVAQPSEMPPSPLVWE
The settings on record: experiment wp168.

The mark [8] stands for this setting: experiment wp146, direction down.
The mark [9] stands for this setting: experiment wp076, direction down.

Like-named read-outs stand apart in the source and are kept apart here.

Chain of protein kinases (human kinome) (Homo sapiens, UniProt P53350) (P53350 whole entry): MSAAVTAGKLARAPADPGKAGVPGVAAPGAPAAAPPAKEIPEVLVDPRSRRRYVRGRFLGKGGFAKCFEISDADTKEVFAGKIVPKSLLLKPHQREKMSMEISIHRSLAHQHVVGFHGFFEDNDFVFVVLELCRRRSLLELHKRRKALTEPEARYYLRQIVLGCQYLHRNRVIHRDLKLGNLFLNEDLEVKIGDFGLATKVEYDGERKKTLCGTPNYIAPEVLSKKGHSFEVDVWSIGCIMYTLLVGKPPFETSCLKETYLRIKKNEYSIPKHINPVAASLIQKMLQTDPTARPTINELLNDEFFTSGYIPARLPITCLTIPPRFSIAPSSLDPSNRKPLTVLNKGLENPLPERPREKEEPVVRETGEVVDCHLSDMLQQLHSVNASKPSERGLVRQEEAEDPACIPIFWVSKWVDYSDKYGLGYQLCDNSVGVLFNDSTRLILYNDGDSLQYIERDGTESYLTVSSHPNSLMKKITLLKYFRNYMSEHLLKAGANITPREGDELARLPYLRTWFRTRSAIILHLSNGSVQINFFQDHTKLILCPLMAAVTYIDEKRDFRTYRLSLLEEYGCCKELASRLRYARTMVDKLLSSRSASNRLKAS

`NC(=O)c1c(F)cccc1Nc1nc(Nc2ccc(S(=O)(=O)NCCOCCOCCOCCOCCNc3cccc4c3C(=O)N(C3CCC(=O)NC3=O)C4=O)cc2)ncc1Br` (stereo not shown) [TMX.02.138]: the logFC in assay [1] (experiment wp146) is given as −0.8254; in assay [1] (setting [8]), −0.8254; in assay [2] it was −1.641. In assay [2], the “logFC CDK1” value was −1.641.
On to `Cc1cnc(Nc2ccc(N3CCN(CCCCCCC(=O)N[C@H](C(=O)N4C[C@H](O)C[C@H]4C(=O)N[C@@H](C)c4ccc(-c5scnc5C)cc4)C(C)(C)C)CC3)cc2)nc1Nc1cccc(S(=O)(=O)NC(C)(C)C)c1` [JWG.123], for which, in assay [3] (Experiment wp195), the “logFC of SIK3 (Q9Y2K2)” value is recorded as −1.322. For the same compound, the logFC in assay [3] (experiment wp195) is −1.322.
Take `Cc1ncsc1-c1ccc([C@H](C)NC(=O)[C@@H]2C[C@@H](O)CN2C(=O)[C@@H](NC(=O)CCCCCN2CCc3cc(Nc4ncc(C5CC5)c(NCCCNC(=O)C5CCC5)n4)ccc3C2)C(C)(C)C)cc1` [BSJ.05.026]: in assay [3] (Experiment wp195), the “logFC of SIK3 (Q9Y2K2)” value is on record as −1.186. The logFC in assay [3] (experiment wp195) was −1.186.
As for `O=C1CCC(N2C(=O)c3cccc(NCCCCCCCCN4CCC(NC(=O)c5[nH]ncc5NC(=O)c5c(Cl)cccc5Cl)CC4)c3C2=O)C(=O)N1` (stereo not shown) [MFH.5.126.1], the logFC in assay [1] (experiment wp076) is −1.649; in assay [1] (setting [9]) it was −1.649; in assay [4], −1.071. Further, the “logFC PLK1” value in assay [4] was −1.071.
For `Cc1cc(Nc2ncc(Br)c(Nc3cccc(F)c3C(N)=O)n2)ccc1S(=O)(=O)NCCOCCOCCOCCOCCNc1cccc2c1C(=O)N(C1CCC(=O)NC1=O)C2=O` (stereo not shown) [TMX.02.174], the logFC in assay [1] (experiment wp146) is −1.361; in assay [1] (setting [8]) it was −1.361; in assay [2], −1.629. For the same compound, the “logFC CDK1” value in assay [2] is reported as −1.629.
For `Cc1ccc(NC(=O)c2cccc(C(F)(F)F)c2)cc1N1Cc2cnc(Nc3ccc(N4CCN(CCCCC(=O)N[C@H](C(=O)N5C[C@H](O)C[C@H]5C(=O)N[C@@H](C)c5ccc(-c6scnc6C)cc5)C(C)(C)C)CC4)nc3)nc2N(C)C1=O` [DB1113], the “logFC MAPKAPK2” value is on record as −3.201 in assay [5] (Accession P49137, direction down) and −3.201 in assay [5] (MAPKAPK2 (P49137)). The logFC in assay [6] is recorded as −0.766; in assay [6] (direction down), −0.766; in assay [7] (NLK (Q9UBE8), direction down) it was −0.8556; in assay [7] (NLK Q9UBE8), −0.8556; in assay [3] (experiment wp168) it was −1.602. Besides, in assay [3] (Experiment wp168), the “logFC of SIK3 (Q9Y2K2)” value is −1.602.
For `CCc1cnn2c(N(Cc3ccc(N)nc3)C(=O)CCOCCOCCOCCNC(=O)CNc3cccc4c3C(=O)N(C3CCC(=O)NC3=O)C4=O)cc(N3CCCC[C@H]3CCO)nc12` (stereo partly shown) [MFH.5.115.2], the logFC in assay [1] (experiment wp076) is listed as −0.5264; in assay [1] (setting [9]), −0.5264; in assay [4], −0.56. Besides, the “logFC PLK1” value in assay [4] is listed as −0.56.
